{"source": "patent US20110166121A1", "about": "(LG LIFE SCIENCES LTD., priority 2008, published 2011)"}
{"molecular_target": "T1, Human P2Y12 receptor (Homo sapiens, UniProt Q9H244)", "T1 construct": "expressed in transfected cells; host or cells: HEK cells", "T1 sequence (Q9H244 whole entry)": "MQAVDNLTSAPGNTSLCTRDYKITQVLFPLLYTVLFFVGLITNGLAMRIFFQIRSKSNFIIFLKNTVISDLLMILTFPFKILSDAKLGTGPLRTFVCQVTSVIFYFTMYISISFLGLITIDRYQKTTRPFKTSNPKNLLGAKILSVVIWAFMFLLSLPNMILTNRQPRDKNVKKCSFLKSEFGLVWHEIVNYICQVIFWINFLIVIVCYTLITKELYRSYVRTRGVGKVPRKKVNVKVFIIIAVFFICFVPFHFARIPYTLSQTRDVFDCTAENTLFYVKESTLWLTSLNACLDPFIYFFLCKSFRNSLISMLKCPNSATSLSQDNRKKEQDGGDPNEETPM", "assay": "Human P2Y12 receptor cell membrane binding assay with [3H] 2-Mes-ADP", "conditions": "1 nM [3H] 2-Mes-ADP, membranes of HEK cells expressing P2Y12 receptor; read-out: Binding activity (IC50)", "method": "(§1) Human P2Y12 Receptor Cell Membrane Binding Assay with [^3H] 2-Mes-ADP\n(§2) Whether test compounds bind to P2Y12 receptor is measured by [3H]-2MesADP binding in HEK cells expressing P2Y12 receptor. The efficacy according to the amount of test compound can be known through the above test, competitive binding test to P2Y12 receptor, in which the binding material (2-Mes-ADP) is labeled with radioactivity isotope and then the extent of inhibition against the binding of radioactively labeled material is measured.\n(§3) Preparation of P2Y12 Membrane Protein Fraction\n(§4) Harvested P2Y12 cells were resuspended with Hypotonic buffer (10 mM HEPES, 10 mM NaCl, 1 mM EDTA, 1 mM EGTA pH 7.4) containing protease inhibitor cocktail. Following the incubation on ice for 15 min, cells were homogenized on ice (Glass/Teflon homogenizer; 1,000 rpm, 10 strokes). The supernant was taken from centrifugation at 500×g for 15 min and then recentrifuged the supernant at 30,000 rpm for 30 min. The membrane pellet was adjusted to 1 mg/mL concentration and stored at −80° C.\n(§5) P2Y12 Receptor Cell Membrane Binding Assay with [3H] 2-Mes-ADP\n(§6) The volume of 100 μL of 200 μg membrane protein was aliquoted into 96 well plate. 50 μL volume of test compounds and [^3H] 2-Mes-ADP (final: 1 nM) were added into each well. The total reaction of 0.2 ml/well was incubated for 1 hour at R.T. The reaction was terminated by filtration through GF/B filter using a 96-well cell harvester. […] Radioactivity bound to P2Y12 receptor membrane was counted in a scintillation counter. Total binding was determined with CPM of test group having no compound and non-specific binding was determined with CPM of test group containing 10 μM 2-Mes-ADP. Binding inhibition percent was calculated as follows: [100−(specific binding in the presence of test material/specific binding in the absence of test material×100)].", "units": {"IC50": "nM"}}
{"molecule": "CCc1cc2c(N3CCn4c(nnc4C(F)(F)F)C3)nc(NCCN)nc2s1", "note": "[Example 2-8, N*1*-[6-Ethyl-4-(3-trifluoromethyl-5,6-dihydro-8H-[1,2,4]triazolo[4,3-a]pyrazin-7-yl)-thieno[2,3-d]pyrimidin-2-yl]-ethane-1,2-diamine]", "IC50": 2280}
{"molecule": "CCc1nc2c(N3CCn4c(nnc4C(F)(F)F)C3)nc(N3CCNC(=O)C3)nc2s1", "note": "[Example 5-1, 4-[2-Ethyl-7-(3-trifluoromethyl-5,6-dihydro-8H-[1,2,4]triazolo[4,3-a]pyrazin-7-yl)-thiazolo[5,4-d]pyrimidin-5-yl]-piperazin-2-one]", "IC50": 680}
{"molecule": "CCc1cc2c(N3CCn4c(nnc4C(F)(F)C(F)(F)F)C3)nc(NCC(O)CO)nc2s1", "note": "(stereo not drawn) [Example 6-2, 3-[6-Ethyl-4-(3-pentafluoroethyl-5,6-dihydro-8H-[1,2,4]triazolo[4,3-a]pyrazin-7-yl)-thieno[2,3-d]pyrimidin-2-ylamino]-propane-1,2-diol]", "IC50": 1200}
{"molecule": "CCc1cc2c(N3CCc4c(nc(-c5ccoc5)nc4C(F)(F)F)C3)nc(N3CCNC(=O)C3)nc2s1", "note": "[Example 6-39, 4-[6-Ethyl-4-(2-furan-3-yl-4-trifluoromethyl-5,8-dihydro-6H-pyrido[3,4-d]pyrimidin-7-yl)-thieno[2,3-d]pyrimidin-2-yl]-piperazin-2-one]", "IC50": 1500}
{"molecule": "CCc1cc2c(N3CCn4c(nnc4C(F)(F)F)C3)nc(NCC(O)CO)nc2s1", "note": "(stereo not drawn) [Example 2-3, 3-[6-Ethyl-4-(3-trifluoromethyl-5,6-dihydro-8H-[1,2,4]triazolo[4,3-a]pyrazin-7-yl)-thieno[2,3-d]pyrimidin-2-ylamino]-propane-1,2-diol]", "IC50": 847}
{"molecule": "CCCc1cc2c(N3CCn4c(nnc4C(F)(F)F)C3)nc(C(=O)OCC)nc2s1", "note": "[Example 4-1, 6-Propyl-4-(3-trifluoromethyl-5,6-dihydro-8H-[1,2,4]triazolo[4,3-a]pyrazin-7-yl)thieno[2,3-d]pyrimidine-2-carboxylic acid ethyl ester]", "IC50": 240}
{"molecule": "CCc1cc2c(N3CCn4c(nnc4-c4ccccc4)C3)nc(N3CCNC(=O)C3)nc2s1", "note": "[Example 6-19, 4-[6-Ethyl-4-(3-phenyl-5,6-dihydro-8H-[1,2,4]triazolo[4,3-a]pyrazin-7-yl)-thieno[2,3-d]pyrimidin-2-yl]-piperazin-2-one]", "IC50": 1950}
{"molecule": "CCc1cc2c(N3CCn4cnnc4C3)nc(N3CCNC(=O)C3)nc2s1", "note": "[Example 6-10, 4-[4-(5,6-Dihydro-8H-[1,2,4]triazolo[4,3-a]pyrazin-7-yl)-6-ethyl-thieno[2,3-d]pyrimidin-2-yl]-piperazin-2-one]", "IC50": 7000}
{"molecule": "Cc1cc2c(N3CCn4c(nnc4C(F)(F)F)C3)nc(N3CCNC(=O)C3)nc2s1", "note": "[Example 2-1, 4-[6-Methyl-4-(3-trifluoromethyl-5,6-dihydro-8H-[1,2,4]triazolo[4,3-a]pyrazin-7-yl)-thieno[2,3-d]pyrimidin-2-yl]-piperazin-2-one]", "IC50": 1100}
{"molecule": "CCc1cc2c(N3CCn4c(nnc4C(F)(F)F)C3)nc(CN3CC[C@@H](O)C3)nc2s1", "note": "[Example 4-20, (R)-1-[6-Ethyl-4-(3-trifluoromethyl-5,6-dihydro-8H-[1,2,4]triazolo[4,3-a]pyrazin-7-yl)thieno[2,3-d]pyrimidin-2-ylmethyl]pyrrolidin-3-ol]", "IC50": 4210}
{"molecule": "CCc1cc2c(N3CCc4c(nc(-c5ccccc5)nc4C(F)(F)F)C3)nc(N3CCNC(=O)C3)nc2s1", "note": "[Example 6-37, 4-[6-Ethyl-4-(2-phenyl-4-trifluoromethyl-5,8-dihydro-6H-pyrido[3,4-d]pyrimidin-7-yl)-thieno[2,3-d]pyrimidin-2-yl]-piperazin-2-one]", "IC50": 400}
{"molecule": "CCCc1cc2c(N3CCn4c(nnc4C(F)(F)F)C3)nc(N3CCc4[nH]ncc4C3)nc2s1", "note": "[Example 1-76, 7-[6-Propyl-2-(1,4,6,7-tetrahydro-pyrazolo[4,3-c]pyridin-5-yl)-thieno[2,3-d]pyrimidin-4-yl]-3-trifluoromethyl-5,6,7,8-tetrahydro-[1,2,4]triazolo[4,3-a]pyrazine]", "IC50": 28}
{"molecule": "CCc1cc2c(N3CCc4c(nc(C(F)(F)F)nc4C(F)(F)F)C3)nc(N3CCNC(=O)C3)nc2s1", "note": "[Example 6-31, 4-[4-(2,4-Bis-trifluoromethyl-5,8-dihydro-6H-pyrido[3,4-d]pyrimidin-7-yl)-6-ethyl-thieno[2,3-d]pyrimidin-2-yl]-piperazin-2-one]", "IC50": 4660}
{"molecule": "CCCc1cc2c(N3CCn4c(nnc4C(F)(F)F)C3)nc(Nc3nc(C(=O)OCC)cs3)nc2s1", "note": "[Example 1-131, 2-[6-Propyl-4-(3-trifluoromethyl-5,6-dihydro-8H-[1,2,4]triazolo[4,3-a]pyrazin-7-yl)thieno[2,3-d]pyrimidin-2-ylamino]thiazole-4-carboxylic acid ethyl ester]", "IC50": 1930}
{"molecule": "CCc1cc2c(N3CCc4[nH]nc(C(F)(F)F)c4C3)nc(N3CCNC(=O)C3)nc2s1", "note": "[Example 6-26, 4-[6-Ethyl-4-(3-trifluoromethyl-1,4,6,7-tetrahydro-pyrazolo[4,3-c]pyridin-5-yl)-thieno[2,3-d]pyrimidin-2-yl]-piperazin-2-one]", "IC50": 16400}
{"molecule": "CCc1cc2c(N3CCn4c(nnc4C(F)(F)F)C3)nc(N[C@@H]3C[C@H](OCCO)[C@@H](O)[C@H]3O)nc2s1", "note": "[Example 2-4, (1S,2S,3R,5S)-3-[6-Ethyl-4-(3-trifluoromethyl-5,6-dihydro-8H-[1,2,4]triazolo[4,3-a]pyrazin-7-yl)-thieno[2,3-d]pyrimidin-2-ylamino]-5-(2-hydroxy-ethoxy)-cyclopentane-1,2-diol]", "IC50": 8920}
{"molecule": "CCc1cc2c(N3CCc4c(nc(-c5ccoc5)nc4C(F)(F)F)C3)nc(NCC(O)CO)nc2s1", "note": "(stereo not drawn) [Example 6-40, 3-[6-Ethyl-4-(2-furan-3-yl-4-trifluoromethyl-5,8-dihydro-6H-pyrido[3,4-d]pyrimidin-7-yl)-thieno[2,3-d]pyrimidin-2-ylamino]-propane-1,2-diol]", "IC50": 1950}
{"molecule": "CCc1cc2c(N3CCc4[nH]ncc4C3)nc(N3CCNC(=O)C3)nc2s1", "note": "[Example 6-24, 4-[6-Ethyl-4-(1,4,6,7-tetrahydro-pyrazolo[4,3-c]pyridin-5-yl)-thieno[2,3-d]pyrimidin-2-yl]-piperazin-2-one]", "IC50": 30000}
{"molecule": "CCc1cc2c(N3CCn4c(nnc4C(F)(F)F)C3)nc(OCC(O)CO)nc2s1", "note": "(stereo not drawn) [Example 3-49, 3-[6-Ethyl-4-(3-trifluoromethyl-5,6-dihydro-8H-[1,2,4]triazolo[4,3-a]pyrazin-7-yl)-thieno[2,3-d]pyrimidin-2-yloxy]-propane-1,2-diol]", "IC50": 406}
{"molecule": "CCc1cc2c(N3CCn4ccnc4C3)nc(OCC(O)CO)nc2s1", "note": "(stereo not drawn) [Example 6-21, 3-[4-(5,6-Dihydro-8H-imidazo[1,2-a]pyrazin-7-yl)-6-ethyl-thieno[2,3-d]pyrimidin-2-yloxy]-propane-1,2-diol]", "IC50": 14500}
{"molecule": "CCCc1cc2c(N3CCc4c(nc(C)nc4C(F)(F)F)C3)nc(N3CCNC(=O)C3)nc2s1", "note": "[Example 6-36, 4-[4-(2-Methyl-4-trifluoromethyl-5,8-dihydro-6H-pyrido[3,4-d]pyrimidin-7-yl)-6-propyl-thieno[2,3-d]pyrimidin-2-yl]-piperazin-2-one]", "IC50": 640}
{"molecule": "CCc1cc2c(N3CCn4c(nnc4C(F)(F)C(F)(F)F)C3)nc(N3CCNC(=O)C3)nc2s1", "note": "[Example 6-1, 4-[6-Ethyl-4-(3-pentafluoroethyl-5,6-dihydro-8H-[1,2,4]triazolo[4,3-a]pyrazin-7-yl)-thieno[2,3-d]pyrimidin-2-yl]-piperazin-2-one]", "IC50": 133}
{"molecule": "CC(C)c1cc2c(N3CCn4c(nnc4C(F)(F)F)C3)nc(NCCO)nc2s1", "note": "[Example 2-11, 2-[6-Isopropyl-4-(3-trifluoromethyl-5,6-dihydro-8H-[1,2,4]triazolo[4,3-a]pyrazin-7-yl)-thieno[2,3-d]pyrimidin-2-ylamino]-ethanol]", "IC50": 1820}
{"molecule": "CCc1cc2c(N3CCc4c(nc(C(F)(F)F)nc4C(F)(F)F)C3)nc(OCC(O)CO)nc2s1", "note": "(stereo not drawn) [Example 6-32, 3-[4-(2,4-Bis-trifluoromethyl-5,8-dihydro-6H-pyrido[3,4-d]pyrimidin-7-yl)-6-ethyl-thieno[2,3-d]pyrimidin-2-yloxy]-propane-1,2-diol]", "IC50": 4640}
{"molecular_target": "T1, Human P2Y12 receptor", "assay": "Human P2Y12 receptor cell membrane binding assay with [3H] 2-Mes-ADP", "conditions": "30 μM compound; 1 nM [3H] 2-Mes-ADP", "method": "as §1, §2, §3, §4, §5, §6", "units": {"inhibition at 30 µM": "%"}}
{"molecule": "CCCc1cc2c(N3CCn4c(nnc4C(F)(F)F)C3)nc(Sc3ccccc3)nc2s1", "note": "[Example 3-52, 7-(2-Phenylsulfanyl-6-propyl-thieno[2,3-d]pyrimidin-4-yl)-3-trifluoromethyl-5,6,7,8-tetrahydro-[1,2,4]triazolo[4,3-a]pyrazine]", "inhibition at 30 µM": 20}
{"molecule": "CCc1cc2c(N3CCc4[nH]ncc4C3)nc(OCC(O)CO)nc2s1", "note": "(stereo not drawn) [Example 6-25, 3-[6-Ethyl-4-(1,4,6,7-tetrahydro-pyrazolo[4,3-c]pyridin-5-yl)-thieno[2,3-d]pyrimidin-2-yloxy]-propane-1,2-diol]", "inhibition at 30 µM": 38.6}
{"molecule": "CCc1cc2c(N3CCn4cnnc4C3)nc(OCC(O)CO)nc2s1", "note": "(stereo not drawn) [Example 6-11, 3-[4-(5,6-Dihydro-8H-[1,2,4]triazolo[4,3-a]pyrazin-7-yl)-6-ethyl-thieno[2,3-d]pyrimidin-2-yloxy]-propane-1,2-diol]", "inhibition at 30 µM": 39.3}
